# Laboratory results from PubChem BioAssay AID2060484 (Molecular Pharmacology Branch, DTP, NCI, 2025).
# System: SUM149PT spheroids with HUVEC/MSC, viability
# Test: Anticancer human tumor SUM149PT cell line growth inhibition [GQUAD];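 further: spheroids exposed to drugs for seven days before readout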;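 on viability, T/C: percent viability relative to DMSO vehicle control taken as 100%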
# Details: for IC50: curve of first compound; for viability, T/C: stronger effect = lower value
# In short: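 Tumor cells were grown as complex spheroids with HUVEC endothelial cells and mesenchymal stem cells as stroma. G-quadruplex stabilizers were combined with targeted agents over half-log dilutions from near the clinical Cmax, or from 10 microM.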
# [1] = second compound 0.0316 µM, first compound 0.0316 µM
# [2] = second compound 0.0316 µM, first compound 0.1 µM
# [3] = second compound 0.0316 µM, first compound 0.316 µM
# [4] = second compound 0.0316 µM, first compound 1 µM
# [5] = second compound 0.0316 µM, first compound 3.16 µM
# [6] = second compound 0.0316 µM, first compound 10 µM
# [7] = second compound 0.1 µM, first compound 0.0316 µM
# [8] = second compound 0.1 µM, first compound 0.1 µM
# [9] = second compound 0.1 µM, first compound 0.316 µM
# [10] = second compound 0.1 µM, first compound 1 µM
# [11] = second compound 0.1 µM, first compound 3.16 µM
# [12] = second compound 0.1 µM, first compound 10 µM
# [13] = second compound 0.316 µM, first compound 0.0316 µM
# [14] = second compound 0.316 µM, first compound 0.1 µM
# [15] = second compound 0.316 µM, first compound 0.316 µM
# [16] = second compound 0.316 µM, first compound 1 µM
# [17] = second compound 0.316 µM, first compound 3.16 µM
# [18] = second compound 0.316 µM, first compound 10 µM
# [19] = second compound 1 µM, first compound 0.0316 µM
# [20] = second compound 1 µM, first compound 0.1 µM
# [21] = second compound 1 µM, first compound 0.316 µM
# [22] = second compound 1 µM, first compound 1 µM
# [23] = second compound 1 µM, first compound 3.16 µM
# [24] = second compound 1 µM, first compound 10 µM
# [25] = second compound 3.16 µM, first compound 0.0316 µM
# [26] = second compound 3.16 µM, first compound 0.1 µM
# [27] = second compound 3.16 µM, first compound 0.316 µM
# [28] = second compound 3.16 µM, first compound 1 µM
# [29] = second compound 3.16 µM, first compound 3.16 µM
# [30] = second compound 3.16 µM, first compound 10 µM
# [31] = second compound 10 µM, first compound 0.0316 µM
# [32] = second compound 10 µM, first compound 0.1 µM
# [33] = second compound 10 µM, first compound 0.316 µM
# [34] = second compound 10 µM, first compound 1 µM
# [35] = second compound 10 µM, first compound 3.16 µM
# [36] = second compound 10 µM, first compound 10 µM
compound,measurement,setting,value
CC1COCCN1c1cc(-c2ccnn2C)c2ccnc(-c3ccn[nH]3)c2n1 (stereo not drawn) + Cc1cnc(CNC(=O)c2c(=O)c3ccc(N4CCCN(C)CC4)nc3n3c2sc2ccccc23)cn1,IC50,second compound 0.0316 µM,< 31.6 nM
same,IC50,second compound 0.1 µM,< 31.6 nM
same,IC50,second compound 0.316 µM,< 31.6 nM
same,IC50,second compound 1 µM,< 31.6 nM
same,IC50,second compound 3.16 µM,< 31.6 nM
same,IC50,second compound 10 µM,< 31.6 nM
same,"viability, T/C",[1],14.7%
same,"viability, T/C",[2],12.5%
same,"viability, T/C",[3],18.1%
same,"viability, T/C",[4],18.2%
same,"viability, T/C",[5],20.6%
same,"viability, T/C",[6],19.2%
same,"viability, T/C",[7],17.1%
same,"viability, T/C",[8],19.6%
same,"viability, T/C",[9],18.7%
same,"viability, T/C",[10],20.3%
same,"viability, T/C",[11],20.3%
same,"viability, T/C",[12],20.4%
same,"viability, T/C",[13],21.1%
same,"viability, T/C",[14],20.5%
same,"viability, T/C",[15],24.3%
same,"viability, T/C",[16],20.3%
same,"viability, T/C",[17],21.9%
same,"viability, T/C",[18],18.4%
same,"viability, T/C",[19],21.4%
same,"viability, T/C",[20],23.1%
same,"viability, T/C",[21],26.4%
same,"viability, T/C",[22],21.5%
same,"viability, T/C",[23],20.7%
same,"viability, T/C",[24],17.5%
same,"viability, T/C",[25],25.9%
same,"viability, T/C",[26],23.6%
same,"viability, T/C",[27],24.2%
same,"viability, T/C",[28],20.8%
same,"viability, T/C",[29],18.8%
same,"viability, T/C",[30],15.9%
same,"viability, T/C",[31],0.11%
same,"viability, T/C",[32],0.15%
same,"viability, T/C",[33],0.93%
same,"viability, T/C",[34],1.21%
same,"viability, T/C",[35],1.74%
same,"viability, T/C",[36],0.18%
CC1COCCN1c1cc(C2(O)CC3CCC(C2)O3)c2cnn(-c3ccn[nH]3)c2n1 (stereo not drawn) + Cc1cnc(CNC(=O)c2c(=O)c3ccc(N4CCCN(C)CC4)nc3n3c2sc2ccccc23)cn1,IC50,second compound 0.0316 µM,< 31.6 nM
same,IC50,second compound 0.1 µM,< 31.6 nM
same,IC50,second compound 0.316 µM,< 31.6 nM
same,IC50,second compound 1 µM,< 31.6 nM
same,IC50,second compound 3.16 µM,< 31.6 nM
same,IC50,second compound 10 µM,< 31.6 nM
same,"viability, T/C",[1],18.1%
same,"viability, T/C",[2],15.6%
same,"viability, T/C",[3],18.9%
same,"viability, T/C",[4],17.3%
same,"viability, T/C",[5],19.6%
same,"viability, T/C",[6],15.7%
same,"viability, T/C",[7],19.2%
same,"viability, T/C",[8],18.7%
same,"viability, T/C",[9],19.7%
same,"viability, T/C",[10],18.3%
same,"viability, T/C",[11],17.6%
same,"viability, T/C",[12],14.8%
same,"viability, T/C",[13],19.4%
same,"viability, T/C",[14],21.5%
same,"viability, T/C",[15],22%
same,"viability, T/C",[16],18.2%
same,"viability, T/C",[17],17.9%
same,"viability, T/C",[18],12.6%
same,"viability, T/C",[19],21.8%
same,"viability, T/C",[20],23.7%
same,"viability, T/C",[21],21.4%
same,"viability, T/C",[22],17.4%
same,"viability, T/C",[23],15.7%
same,"viability, T/C",[24],12.9%
same,"viability, T/C",[25],23%
same,"viability, T/C",[26],22.9%
same,"viability, T/C",[27],21.1%
same,"viability, T/C",[28],16%
same,"viability, T/C",[29],14.7%
same,"viability, T/C",[30],11%
same,"viability, T/C",[31],0.11%
same,"viability, T/C",[32],1.32%
same,"viability, T/C",[33],1.05%
same,"viability, T/C",[34],1.13%
same,"viability, T/C",[35],1.57%
same,"viability, T/C",[36],0.19%
CC1COCCN1c1cc(C2(S(C)(=N)=O)CC2)nc(-c2ccnc3[nH]ccc23)n1 (stereo not drawn) + Cc1cnc(CNC(=O)c2c(=O)c3ccc(N4CCCN(C)CC4)nc3n3c2sc2ccccc23)cn1,IC50,second compound 0.0316 µM,249 nM
same,IC50,second compound 0.1 µM,164 nM
same,IC50,second compound 0.316 µM,97.9 nM
same,IC50,second compound 1 µM,< 31.6 nM
same,IC50,second compound 3.16 µM,< 31.6 nM
same,IC50,second compound 10 µM,< 31.6 nM
same,"viability, T/C",[1],87%
same,"viability, T/C",[2],71.1%
same,"viability, T/C",[3],44.9%
same,"viability, T/C",[4],25.8%
same,"viability, T/C",[5],31.5%
same,"viability, T/C",[6],17.7%
same,"viability, T/C",[7],59.8%
same,"viability, T/C",[8],57.9%
same,"viability, T/C",[9],38.6%
same,"viability, T/C",[10],23.7%
same,"viability, T/C",[11],36%
same,"viability, T/C",[12],17.9%
same,"viability, T/C",[13],57.3%
same,"viability, T/C",[14],48.9%
same,"viability, T/C",[15],41.4%
same,"viability, T/C",[16],27.2%
same,"viability, T/C",[17],29.2%
same,"viability, T/C",[18],22.5%
same,"viability, T/C",[19],45.9%
same,"viability, T/C",[20],46%
same,"viability, T/C",[21],42.9%
same,"viability, T/C",[22],31.8%
same,"viability, T/C",[23],37.1%
same,"viability, T/C",[24],21.3%
same,"viability, T/C",[25],36.9%
same,"viability, T/C",[26],37.7%
same,"viability, T/C",[27],36.2%
same,"viability, T/C",[28],31.1%
same,"viability, T/C",[29],33.7%
same,"viability, T/C",[30],20.4%
same,"viability, T/C",[31],0.72%
same,"viability, T/C",[32],0.21%
same,"viability, T/C",[33],0.33%
same,"viability, T/C",[34],0.28%
same,"viability, T/C",[35],0.77%
same,"viability, T/C",[36],1.29%
O=C(c1cc(Cc2n[nH]c(=O)c3ccccc23)ccc1F)N1CCN(C(=O)C2CC2)CC1 + Cc1cnc(CNC(=O)c2c(=O)c3ccc(N4CCCN(C)CC4)nc3n3c2sc2ccccc23)cn1,IC50,second compound 0.0316 µM,9980 nM
same,IC50,second compound 0.1 µM,> 10000 nM
same,IC50,second compound 0.316 µM,5010 nM
same,IC50,second compound 1 µM,< 31.6 nM
same,IC50,second compound 3.16 µM,< 31.6 nM
same,IC50,second compound 10 µM,< 31.6 nM
same,"viability, T/C",[1],87.6%
same,"viability, T/C",[2],72.1%
same,"viability, T/C",[3],83.3%
same,"viability, T/C",[4],88.3%
same,"viability, T/C",[5],80.2%
same,"viability, T/C",[6],50%
same,"viability, T/C",[7],63.6%
same,"viability, T/C",[8],70.1%
same,"viability, T/C",[9],65.8%
same,"viability, T/C",[10],66.4%
same,"viability, T/C",[11],61.4%
same,"viability, T/C",[12],44.5%
same,"viability, T/C",[13],53.2%
same,"viability, T/C",[14],58.5%
same,"viability, T/C",[15],55.4%
same,"viability, T/C",[16],54.5%
same,"viability, T/C",[17],53.6%
same,"viability, T/C",[18],44%
same,"viability, T/C",[19],43%
same,"viability, T/C",[20],47%
same,"viability, T/C",[21],47.1%
same,"viability, T/C",[22],48.4%
same,"viability, T/C",[23],48.5%
same,"viability, T/C",[24],42.7%
same,"viability, T/C",[25],35.4%
same,"viability, T/C",[26],42.2%
same,"viability, T/C",[27],40.3%
same,"viability, T/C",[28],38.7%
same,"viability, T/C",[29],39.5%
same,"viability, T/C",[30],37.6%
same,"viability, T/C",[31],10.2%
same,"viability, T/C",[32],12.1%
same,"viability, T/C",[33],27.6%
same,"viability, T/C",[34],30.5%
same,"viability, T/C",[35],22.6%
same,"viability, T/C",[36],2.16%
